Measurements as given in patent publication US20120220560A1, “STEROID TETROL SOLID STATE FORMS” (priority 2010, published 2012).

Assays:
[1] = test system: IL-6 from MG-63 cells; experiment: Inhibition of IL-6 from MG-63 cells; format: cell-based; settings: Homo sapiens, pilot studies
Description: (§1) The capacity of 5-androstene-3β,7β,17β-triol, androst-5-ene-3β,7β,16α,17β-tetrol (3β-tetrol) and other compounds to reverse adverse effects of glucocorticoids in bone growth was shown in the human MG-63 osteosarcoma cell line. MG-63 cells are osteoblasts, which are cells that mediate bone growth. This cell line has been used extensively to study bone biology and to characterize the biological activity of compounds for treatment of bone loss conditions (e.g., B. D. Boyan et al., J. Biol. Chem., 264(20):11879-11886 (1989); L. C. Hofbauer et al., Endocrinology, 140(10):4382-4389 (1999)). Adverse toxicities associated with elevated glucocorticoid levels include a […] in the production of IL-6 and IL-8 by osteoblasts, including the MG-63 cell line, and an increase in the expression of the 11β-hydroxysteroid dehydrogenase type 1 enzyme (11β-HSD). Increased 11β-hydroxysteroid dehydrogenase type 1 enzyme results in increased levels of endogenous glucocorticoid activity by converting endogenous cortisone to the active cortisol, which inhibits bone growth. The 11β-HSD enzyme is expressed in liver, adipose tissue, brain and bone tissues. Cortisol generated by 11β-HSD-1 contributes to osteoporosis, insulin resistance, type 2 diabetes, dyslipidemia, obesity, central nervous system disorders such as stroke, neuron death, depression and Parkinson Disease. […]

[2] = test system: osteoprotegerin; experiment: Osteoprotegerin levels in dexamethasone-treated mice; format: in vivo; settings: mice treated with vehicle and dexamethasone at 10 μg/day, daily for 23 days (positive control group)
Procedure: Osteoprotegerin levels in mice that are treated with vehicle and dexamethasone at 10 μg/day (positive control group) typically show 3.3 pMol/L osteoprotegerin, […]

[3] = test system: male Wistar rats, DNBS challenge; experiment: DNBS-induced distal colitis, animal model for inflammatory bowel disease; format: in vivo; settings: sc once a day for 6 days, 0.2 or 2.0 mg/animal/day, 25-30% decrease considered significant
Procedure: The capacity of androst-5-ene-3β,7β,16α,17β-tetrol (3β-tetrol) to limit or inhibit inflammation or symptoms of inflammation is shown using an animal model for inflammatory bowel disease using the following protocol.
Groups of 3 male Wistar rats (180±20 grams) fasted for 24 hours before 2,4-dinitrobenzene sulfonic acid (DNBS) or saline challenge are used. Distal colitis is induced by intra-colonic instillation of 0.5 mL of an ethanolic solution of DNBS (30 mg in 0.5 mL of a 30% ethanol in saline solution) after which 2 mL of air was injected through the cannula to ensure that the solution remained in the colon. The volume used was 0.1 mL per injection of 2 and 20 mg/mL of compound such as androst-5-ene-3β,7β,17β-triol or 3β-tetrol in a liquid formulation, which was administered by subcutaneous injection once a day for 6 days (0.2 mg/animal/day or 2.0 mg/animal/day). The formulation contains […] of compound. Concentrations of 2 mg/mL and 20 mg/mL are obtained by […] with vehicle that lacked compound.
The first dose is given 30 minutes after DNBS challenge. […] The presence of diarrhea is recorded daily by examining the anal area. […] Before removal of the colon, signs of adhesion between the colon and other organs are recorded. […]

[4] = test system: 8 week old db/db diabetic mice; experiment: Hyperinsulinemic-euglycemic clamp, glucose lowering in db/db diabetic mice; format: in vivo; settings: for glucose uptake in white vastus muscle / augmenting muscle glucose uptake in the gastrocnemius muscle: 14C-2-deoxyglucose during clamp; for glucose uptake in white vastus muscle: non oxidative muscle group; for augmenting muscle glucose uptake in the gastrocnemius muscle: p<0.05; for glucose infusion rate compared to the vehicle control: db/db mice, po bid 13 days, qd day 14, clamp on day 14, insulin 10 mU/kg/min
Procedure: Glucose lowering in 8 week old db/db diabetic mice: The hyperinsulinemic-euglycemic clamp protocol was conducted to measure insulin sensitivity in vivo. In this procedure, insulin was administered to raise the insulin concentration while glucose was infused to maintain euglycemia or a fixed, normal blood glucose level (about 180 mg/dL). […] The objective of this protocol was to investigate characterize the capacity of 17α-ethynylandrost-5-ene-3β,7β,17β-triol and androst-5-ene-3β,7β,16α,17β-tetrol to ameliorate systemic insulin resistance and improve whole body glucose disposal in the hyperinsulinemic-euglycemic clamp model. The degree of skeletal muscle and hepatic insulin sensitivity and tissue specific glucose uptake were also assessed. The animals were dosed daily by oral gavage for 14 days. On Day 10 of treatment catheters were implanted in the carotid artery and jugular vein. On the day of the clamp (day 14) the compound was administered at 7:30 am.
Body weight and glucose concentration were assessed on day 0, 7 and day 14 of treatment. On day 14 a euglycemic-hyperinsulinemic clamp was performed. Food was removed at 7:30 am and at 10:30 a primed continuous infusion of [3-^3H]-glucose (0.05 μCi/min) was administered. A baseline blood sample was taken at 12:50 (−10 min) and at 1:00 (0 min) a euglycemic-hyperinsulinemic clamp was initiated by administering 10 mU/kg/min of insulin. Glucose was infused at a variable rate to clamp the glucose concentration at about 180 mg/dl. A bolus of [^14C]-2deoxyglucose was given at the end of the study to assess tissue specific glucose uptake. Plasma ^14C 2-deoxyglucose was assessed at 122, 125, 130, 135, 145 min. The animals were then anesthetized with an intravenous infusion of sodium pentobarbital and selected tissues were removed, immediately frozen in liquid nitrogen and stored at −70° C. until analysis.
Analysis was conducted as follows. Plasma samples were deproteinized with Ba(OH)2 (0.3 N) and ZnSO4 (0.3 N), dried and radioactivity was assessed on scintillation counter (Packard TRICARB 2900 TR, Meriden, Conn.). Frozen tissue samples were homogenized in 0.5% perchloric acid, centrifuged and neutralized. One supernatant was directly counted to determine radioactivity from both [14C] DG and DGP. A second aliquot was treated with Ba(OH)2 and ZnSO4 to remove ^14C DGP and any tracer incorporated into glycogen and then counted to determine radioactivity from free [^14C]DG(2). [^14C]DGP was calculated as the difference between the two aliquots. The accumulation of [^14C]DGP was normalized to tissue weight and tracer bolus. Rg, an index of tissue specific glucose uptake was calculated as previously described (E. W. Kraegen et al., Am. J. Physiol., 248: E353-E362 (1985)). Whole body glucose turnover was calculated as the ratio of the ^3H glucose infusion rate (dpm/kg/min) and arterial plasma glucose specific activity (dpm/mg). Endogenous glucose production was calculated as the difference between the whole body glucose turnover and the exogenous glucose infusion rate (R. N. Bergman et al., Endocr. Rev., 6:45-86, (1985)).

[5] = test system: MG-63 cells; experiment: Reversal of adverse effects of dexamethasone in MG-63 osteoblasts (incl. osteoprotegerin synthesis); format: cell-based, human
Description: as §1

[6] = molecular target: T1, androgen receptor (Homo sapiens, UniProt P10275); experiment: Interaction with androgen receptor; format: binding
T1 sequence (P10275 1-920): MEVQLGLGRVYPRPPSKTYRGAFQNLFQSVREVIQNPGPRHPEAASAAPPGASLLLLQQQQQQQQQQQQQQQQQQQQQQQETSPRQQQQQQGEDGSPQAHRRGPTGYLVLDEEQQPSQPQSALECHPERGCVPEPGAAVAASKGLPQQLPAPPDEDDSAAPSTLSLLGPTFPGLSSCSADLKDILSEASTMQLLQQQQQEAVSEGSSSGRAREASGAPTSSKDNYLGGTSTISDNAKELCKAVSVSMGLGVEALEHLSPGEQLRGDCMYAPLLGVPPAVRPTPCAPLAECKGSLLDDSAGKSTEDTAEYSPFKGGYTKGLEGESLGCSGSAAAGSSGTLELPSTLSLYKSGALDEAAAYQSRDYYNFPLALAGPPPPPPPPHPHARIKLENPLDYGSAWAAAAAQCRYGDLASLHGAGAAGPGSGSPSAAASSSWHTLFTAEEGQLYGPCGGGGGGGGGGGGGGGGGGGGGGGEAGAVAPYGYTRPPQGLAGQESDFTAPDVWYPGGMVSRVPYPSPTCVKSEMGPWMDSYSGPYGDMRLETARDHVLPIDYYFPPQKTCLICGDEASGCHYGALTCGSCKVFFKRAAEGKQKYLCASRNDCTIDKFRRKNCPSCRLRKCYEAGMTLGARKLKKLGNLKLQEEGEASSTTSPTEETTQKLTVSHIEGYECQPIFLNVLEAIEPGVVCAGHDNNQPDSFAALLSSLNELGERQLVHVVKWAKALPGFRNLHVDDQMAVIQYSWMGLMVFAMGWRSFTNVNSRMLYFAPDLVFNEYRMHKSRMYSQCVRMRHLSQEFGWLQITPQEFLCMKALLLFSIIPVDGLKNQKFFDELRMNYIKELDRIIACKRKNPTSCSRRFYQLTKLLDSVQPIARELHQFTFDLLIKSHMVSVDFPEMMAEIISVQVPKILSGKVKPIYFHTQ

[7] = molecular target: estrogen receptor-α (Homo sapiens, UniProt P03372); experiment: Interaction with estrogen receptor-α; format: binding
Chain of estrogen receptor-α (P03372 whole entry): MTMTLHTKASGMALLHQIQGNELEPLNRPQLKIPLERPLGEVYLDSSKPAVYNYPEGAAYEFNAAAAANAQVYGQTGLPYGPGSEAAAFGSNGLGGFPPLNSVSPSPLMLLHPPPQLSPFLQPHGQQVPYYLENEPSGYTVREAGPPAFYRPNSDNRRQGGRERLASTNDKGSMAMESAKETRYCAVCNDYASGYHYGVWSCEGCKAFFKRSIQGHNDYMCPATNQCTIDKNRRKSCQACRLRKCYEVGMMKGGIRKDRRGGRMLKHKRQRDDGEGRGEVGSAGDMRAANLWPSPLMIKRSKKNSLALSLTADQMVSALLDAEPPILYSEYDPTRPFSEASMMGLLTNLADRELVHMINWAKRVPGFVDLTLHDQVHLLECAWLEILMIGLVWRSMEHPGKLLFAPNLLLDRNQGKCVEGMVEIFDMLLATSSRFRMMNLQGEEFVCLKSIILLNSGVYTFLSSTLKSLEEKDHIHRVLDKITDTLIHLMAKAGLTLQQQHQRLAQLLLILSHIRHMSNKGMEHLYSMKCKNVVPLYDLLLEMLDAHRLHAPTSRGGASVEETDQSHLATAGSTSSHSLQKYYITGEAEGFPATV

[8] = molecular target: estrogen receptor-β (Homo sapiens, UniProt Q92731); experiment: Interaction with estrogen receptor-β; format: binding
Chain of estrogen receptor-β (Q92731 whole entry, species assumed): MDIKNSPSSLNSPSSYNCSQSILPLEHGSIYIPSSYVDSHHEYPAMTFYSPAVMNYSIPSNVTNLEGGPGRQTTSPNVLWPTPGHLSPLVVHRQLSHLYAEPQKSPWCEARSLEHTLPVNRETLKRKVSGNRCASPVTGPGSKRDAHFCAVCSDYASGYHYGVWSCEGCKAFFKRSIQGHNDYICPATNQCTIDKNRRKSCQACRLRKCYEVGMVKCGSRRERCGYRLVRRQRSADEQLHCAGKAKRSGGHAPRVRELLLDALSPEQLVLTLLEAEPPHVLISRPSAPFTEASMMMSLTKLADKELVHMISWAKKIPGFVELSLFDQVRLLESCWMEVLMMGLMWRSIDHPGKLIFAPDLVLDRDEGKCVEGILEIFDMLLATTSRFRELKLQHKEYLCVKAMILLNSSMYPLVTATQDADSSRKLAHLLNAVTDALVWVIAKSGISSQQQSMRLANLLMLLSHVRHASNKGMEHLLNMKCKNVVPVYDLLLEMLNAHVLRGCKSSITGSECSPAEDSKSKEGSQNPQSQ

| Structure (SMILES) | decrease in net colon-to-body weight ratio [3] | glucose uptake in white vastus muscle [4] | augmenting muscle glucose uptake in the gastrocnemius muscle [4] | glucose infusion rate compared to the vehicle control [4] | also measured |
| --- | --- | --- | --- | --- | --- |
| C[C@@H]1C[C@H]2[C@@H]3CCC4=CC(=O)C=C[C@]4(C)[C@@]3(F)[C@@H](O)C[C@]2(C)[C@@]1(O)C(=O)CO [dexamethasone] |  |  |  |  | IC50 [1]: 0.01 µM; osteoprotegerin level [2]: 3.3 pmol/L |
| C[C@]12CC[C@H]3[C@@H]([C@@H](O)C=C4C[C@@H](O)CC[C@@]43C)[C@@H]1CC[C@@H]2O [androst-5-ene-3β,7β,17β-triol, reference compound] | 15-20% |  |  |  |  |
| CN(CCOc1ccc(CC2SC(=O)NC2=O)cc1)c1ccccn1.O=C(O)/C=C\C(=O)O (stereo not drawn) [rosiglitazone, rosiglitazone maleate, reference compound] |  | differences were not detected except between androst-5-ene-3β,7β,16α,17β-tetrol and rosiglitazone | more effective |  |  |
| C[C@]12CC[C@H]3[C@@H]([C@@H](O)C=C4C[C@@H](O)CC[C@@]43C)[C@@H]1C[C@@H](O)[C@@H]2O [Form 3β-tetrol, androst-5-ene-3β,7β,16α,17β-tetrol] | 25-35% | differences were not detected except between androst-5-ene-3β,7β,16α,17β-tetrol and rosiglitazone | more effective | increased | concentration giving normal osteoprotegerin levels ([5]; MG-63 cells, 30 nM dexamethasone): 0.1 µM; reversal of the decrease in osteoprotegerin synthesis by MG-63 cells ([5]; in the presence of 30 nM dexamethasone): completely or partially reversed; interaction with androgen receptor [6]: does not interact; interaction with estrogen receptor-α [7]: does not interact; interaction with estrogen receptor-β [8]: does not interact |
| C#C[C@]1(O)CC[C@H]2[C@@H]3[C@@H](O)C=C4C[C@@H](O)CC[C@]4(C)[C@H]3CC[C@@]21C [17α-ethynylandrost-5-ene-3β,7β,17β-triol, reference compound] |  |  |  | increased |  |
